Tests used:
S. aureus RN4220 = assay: DAP MIC, micro-broth dilution, plasmid-carrying strains; assay type: cell-based, Staphylococcus aureus; details: MH + 50 µg/mL CaCl2, 18 h 37 °C, three biological replicates
Method: (§1) Bacteria were grown in Muller-Hinton broth (MH) (Carl Roth GmbH + Co. KG, Karlsruhe, Germany) and over-night cultures supplemented with antibiotics when required. […] For transcription profiling experiments, bacteria were exposed to 128 µg/mL DAP for 30 min. All strains, except bacilli (30 °C), were incubated at 37 °C.
(§2) Recombinant plasmids (Table S1) were generated by in vitro E. coli cloning method, employing shuttle vector pCG248 as backbone and E. coli DC10B as host. After recovery from E. coli, recombinant plasmids were transformed into S. aureus or B. subtilis via electroporation.
(§3) The cultures were adjusted to 5 × 10^5 CFU/mL and transferred to a 96-well flat bottom microtiter plate (Greiner Bio-One GmbH, Frickenhausen, Germany). 100 ng/mL anhydrotetracycline (ATc) (Carl Roth GmbH + Co. KG, Karlsruhe, Germany) was added if required; ATc-containing plates were stored in the dark. Plates were incubated for 18 h at 37 °C (24 h at 30 °C for bacilli) under static conditions. Afterwards, the OD595 was measured to determine the MIC according to EUCAST guidelines.

S. aureus USA300 LAC* = assay: DAP MIC, micro-broth dilution, plasmid-carrying MRSA strains; assay type: cell-based, Staphylococcus aureus; details: MH + 50 µg/mL CaCl2, 18 h 37 °C, three biological replicates
Method: as §1, §2, §3

B. subtilis 168 = assay: DAP MIC, micro-broth dilution, plasmid-carrying strains; assay type: cell-based, Bacillus subtilis
Method: as §1, §2, §3

[1] = test system: drcA and drcB (TS92_00079, TS92_00080) in M. sciuri TS92; assay: Transcription profiling (RNA-Seq) upon DAP exposure; assay type: cell-based, Mammaliicoccus sciuri; details: M. sciuri TS92 exposed to 128 µg/mL DAP for 30 min, three biological replicates, DESeq2
Method: An overnight culture of M. sciuri TS92 was diluted in fresh MH to an optical density at 600 nm (OD600) of 0.05 and grown to OD600 0.5. The culture was split into 10 mL each aliquots and incubated in the absence and presence of 128 µg/mL DAP for 30 min. Subsequently, total RNA extraction was performed as described previously.
RNA was isolated from three biological replicates. RNA quality was checked using a 2100 Bioanalyzer with the RNA 6000 Nano Kit (Agilent Technologies, Santa Clara, USA). cDNA libraries suitable for sequencing were prepared from 1000 ng of total RNA after DNase I treatment (Thermo Fisher, Darmstadt, Germany). […] The number of PCR cycles was determined at 14 by qPCR and the elongation time was set to 15 s. Libraries were quantified by Qubit^TM dsDNA HS Assay Kit and Qubit^TM 3.0 Fluorometer (ThermoFisher), and quality was checked using 2100 Bioanalyzer with the High Sensitivity DNA Kit (Agilent Technologies) before pooling. Sequencing of pooled libraries, spiked with 5% PhiX control library, was performed at ~11–15 million reads per sample in single-end mode with 75 nucleotide read length on the NextSeq 500 platform (Illumina, San Diego, CA, USA). […] Afterwards, the pipeline READemption v0.4.5[59] was applied to align all reads longer than 11 nt (-l 12) to our de novo assembled M. sciuri TS92 genome using segemehl v0.2.0[60] with an accuracy cut-off of 95% (-a 95). […]

[2] = test system: Enterococcus faecalis CVM N59689F; details: E. faecalis CVM N59689F, drc-carrying isolate from market swine; cited from earlier work
Source text: Table 1 Detection of the drc locus (drcRS/drcAB) in staphylococci and enterococci | column: DAP MIC (µg/mL) || Another bottleneck in clinical AMR development is that AMR genes from environmental microorganisms must gain access to pathogenic species. This requires donors and recipients to come into close physical contact, which is often challenging as pathogenic and environmental species rarely share the same ecological niche. In this respect, M. sciuri may play a crucial role in drc acquisition and spread. Due to its dual lifestyle as a soil bacterium and animal commensal, M. sciuri comes into contact with both the soil resistome and commensal bacteria associated with warm-blooded hosts, making M. sciu ...

CCCCCCCCCC(=O)N[C@@H](Cc1c[nH]c2ccccc12)C(=O)N[C@H](CC(N)=O)C(=O)N[C@@H](CC(=O)O)C(=O)N[C@@H]1C(=O)NCC(=O)N[C@@H](CCCN)C(=O)N[C@@H](CC(=O)O)C(=O)N[C@H](C)C(=O)N[C@@H](CC(=O)O)C(=O)NCC(=O)N[C@H](CO)C(=O)N[C@@H]([C@H](C)CC(=O)O)C(=O)N[C@@H](CC(=O)c2ccccc2N)C(=O)O[C@@H]1C [DAP, Daptomycin]
DAP MIC (S. aureus RN4220; S. aureus RN4220_Pxyl/tet-drcAB + ATc (100 ng/mL, induced)): 64 µg/mL
DAP MIC (S. aureus RN4220; S. aureus RN4220_drcRS/drcAB (entire drc locus, native drcRS control, plasmid)): 64 µg/mL
DAP MIC (S. aureus RN4220; S. aureus RN4220_empty vector control): 1 µg/mL
DAP MIC (S. aureus USA300 LAC*; S. aureus USA300 LAC*_Pxyl/tet-drcAB + ATc (induced)): 32 µg/mL
DAP MIC (S. aureus USA300 LAC*; S. aureus USA300 LAC*_drcRS/drcAB (entire drc locus on plasmid)): 128 µg/mL
DAP MIC (S. aureus USA300 LAC*; S. aureus USA300 LAC*_empty vector control): 1 µg/mL
DAP MIC (B. subtilis 168; B. subtilis 168_Pxyl/tet-drcAB + ATc (induced), MH + 50 µg/mL CaCl2, 24 h 30 °C, three biological replicates): 16 µg/mL
DAP MIC (B. subtilis 168; B. subtilis 168_drcRS/drcAB (entire drc locus on plasmid), MH + 50 µg/mL CaCl2, 24 h 30 °C, three biological replicates): > 256 µg/mL
DAP MIC (B. subtilis 168; B. subtilis 168 as worded in the text, before induction of drcAB expression): 2 µg/mL
up-regulation of drcA and drcB transcription upon DAP exposure versus untreated control [1]: 128 fold change
DAP MIC [2]: >16 µg/mL
